The values below come from PMC9917214, “Assessment of the Permeability of 3,4-Methylenedioxypyrovalerone (MDPV) across the Caco-2 Monolayer for Estimation of Intestinal Absorption and Enantioselectivity” (International Journal of Molecular Sciences, 2023).

SMILES strings stand for the structures.

A word on the Papp: it is the rate of passage across a membrane or cell layer, normalised by area and donor concentration. The low end stands for slow passage, the high end for fast passage.

A short description of data set [1]: Sample stability in HBSS (+/+) after 6 weeks of storage (UHPLC-UV peak area). It counts as physicochemical. The method, then: To evaluate stability, three different calibrators within the linear concentration range (10 (low), 100 (medium), and 500 (high) μM) were prepared and injected into the UHPLC. The remaining volume of each calibrator was divided into several vials and further stored at different temperatures (room temperature, 4 °C, −20 °C, and −80 °C) for 6 weeks (the same storage time of the samples obtained from the permeability assay with Caco-2 cells). After the storage period, samples were injected in duplicate and the obtained analyte peak area for each calibrator in each temperature was compared with the peak area obtained on day 0. Percentages of peak variation were calculated for each concentration.

Data set [2] concerns Caco-2 cells. As to the kind of experiment: Cell viability assay (Neutral Red) in Caco-2 cells. It counts as cell-based, human. The settings on record: 24 h, NR assay. The method, then:
MDPV cytotoxicity for the Caco-2 cell line was evaluated through the NR assay as previously described. This method provides an indication of the ability of lysosomes from viable cells to incorporate the NR dye. Caco-2 cells were seeded onto 96-well plates using a density of 60,000 cells/cm^2 to obtain confluent monolayers at the experimental day. The cells were incubated with the racemate of MDPV (0, 50, 150, 300, 500, 750, 1000, 1250, and 1500 µM) in fresh cell culture medium for 24 h. After the selected time interval, the cell culture medium was removed and replaced by a 50 µg/mL NR solution in HBSS (+/+) for 90 min, after which the NR solution was discarded, a lysis solution (50% EtOH/1% glacial acetic acid solution) was added, and the absorbance was read at 540 nm in a 96-well plate reader (PowerWaveX; Bio-Tek, Winooski, VT, USA). Additionally, 1% Triton X-100 was used as the positive control. Data were expressed as the percentage of cell viability relative to untreated cells. Data were obtained from four independent experiments performed in triplicate.

The test system of data set [3] is Caco-2 cells. The following applies: racemates; cited from earlier work.
Data set [4] has as its system Caco-2 model. Set-up: method as in PMID 32234388. The settings on record: cited from earlier work.
Data set [5] has as its system Caco-2 monolayer. As to the kind of experiment: Permeability assay across the Caco-2 monolayer. It counts as in vitro ADME, human. The settings on record: mean ± SD; for Mass Balance (%): 300 µM in HBSS (+/+), 300 min. As to the method:
For the in vitro permeability assay, Caco-2 cells were seeded on polycarbonate transwell inserts (12-well, 0.4 μm pores, Corning) using a density of 120,000 cells/cm^2 and cultivated for twenty-one days to allow the development of a differentiated monolayer. TEER was measured to control the integrity of the monolayers for twenty-one days.
After twenty-one days, the cells were incubated with 300 µM of each enantiomer of MDPV (in HBSS (+/+)). The assay was performed for both AP to BL and BL to AP directions. For AP to BL, exposure to the enantiomers was performed in the AP compartment (450 µL) while for BL to AP, exposure was made in the BL compartment (1250 µL). Right after the exposure (time 0), 50 µL was collected from each donor compartment (where exposure was performed). At suitable time intervals (40, 60, 90, 120, 180, 240, and 300 min), 600 µL (for AP to BL) and 200 µL (for BL to AL) of samples was collected from the BL and AP compartments (receiver compartments), respectively, and the same amount of HBSS (+/+) was added. In the last time point (300 min), 50 µL was also collected from the donor compartment. Collected samples were stored at −80 °C until the day of the UHPLC analysis. After 6 weeks of storage, samples were filtered with a 13 mm nylon syringe filter with […] pore size from Olimpeak™ and quantification was performed by the validated UHPLC-UV method. Results were obtained for three experiments, performed in duplicate.
Mass balance was calculated using the following equation [31]:(5) % Mass balance=100×QR,T+QD,f/QD,0 where QR,T is the total cumulative quantity in the receiver chamber (nmol), QD,f is the final quantity in the donor chamber (nmol), and QD,0 is the initial quantity in the donor chamber (nmol).
To calculate Papp, first, a determination had to be made to determine whether the results were under sink or non-sink conditions. […] If the ratio is higher, Papp has to be calculated considering a non-sink analysis.
For sink conditions, Papp was calculated in cm/s using the following equation [24]:(6) Papp=ΔQ/Δt×1/A×C0 where ΔQ/Δt is the amount of compound over time (mol/s), A is the surface area of the monolayer (cm^2), and C0 is the initial drug concentration on the donor side (mol/mL).
For non-sink conditions, a continuous change of the donor and receiver concentrations is considered, and the following equation must be used for each time interval to calculate the theoretical concentration at the receiver side:(7) CR(t)=(Qtot/VD+VR)+(CR(t−1)×f−Qtot/VD+VR)×e^−P×A×(1/VR+1/VD)×Δt where CR(t) is the theoretical concentration in the receiver side at time t (µM), Qtot is the total amount of drug in both chambers at time t (nmol), VR and VD are the volumes in the receiver and donor compartments (mL), respectively, CR(t-1) is the concentration in the receiver chamber at the previous time (µM), f is the dilution factor for the sample replacement, A is the surface area of the monolayer (cm^2), Δt is the time interval (s), and P is an initial approximation of the permeability coefficient calculated through Equation (6) (cm/s).
Papp values are determined by the minimization of the Sum of Squared Residuals (SSR):(8) SSR=∑[CR(t)theor−CR(t)exp]^2 where CR(t)theor is the theoretical concentration in the receiver side at time t calculated through Equation (7) and CR(t)exp is the experimental concentration in the receiver side at time t obtained directly from the quantification of the samples. […]

For `CCCC(C(=O)c1ccc2c(c1)OCO2)N1CCCC1` (centres unmarked) [MDPV, 3,4-Methylenedioxypyrovalerone], the “% peak area variation relative to day 0” value in data set [1] (10 µM in HBSS (+/+), 6 weeks of storage at 4 °C) came out at 10.9%; in data set [1] (10 µM in HBSS (+/+), 6 weeks of storage at RT), 11.0%; in data set [1] (10 µM in HBSS (+/+), 6 weeks of storage at −20 °C), 12.5%; in data set [1] (10 µM in HBSS (+/+), 6 weeks of storage at −80 °C) it was 7.1%; in data set [1] (100 µM in HBSS (+/+), 6 weeks of storage at 4 °C) it was 9.1%; in data set [1] (100 µM in HBSS (+/+), 6 weeks of storage at RT), 11.9%. Also, the “% peak area variation relative to day 0” value in data set [1] (100 µM in HBSS (+/+), 6 weeks of storage at −20 °C) amounted to 10.4%; in data set [1] (100 µM in HBSS (+/+), 6 weeks of storage at −80 °C), 8.6%; in data set [1] (500 µM in HBSS (+/+), 6 weeks of storage at 4 °C), 3.4%; in data set [1] (500 µM in HBSS (+/+), 6 weeks of storage at RT), 10.2%; in data set [1] (500 µM in HBSS (+/+), 6 weeks of storage at −20 °C) it was 5.3%; in data set [1] (500 µM in HBSS (+/+), 6 weeks of storage at −80 °C), 6.8%. For the same compound, in data set [2], the “Concentration from which a significant decrease in cell viability was observed” value is not below 1000 µM. Moreover, the “Concentration with no statistically significant differences in cell viability” value in data set [2] (tested up to 1500 µM) is not above 750 µM.

`CCCC(NC)C(=O)c1ccccc1` (centres unmarked) [pentedrone]: the “Concentration range with no cytotoxic effects” value in data set [3] was “up to 2000 μM”.

`CCC[C@@H](NC)C(=O)c1ccccc1` [R-(-)-pentedrone]: the “Enantioselectivity in permeability (more permeable enantiomer)” value in data set [4] is recorded as “most permeable”.

For `CCC[C@@H](C(=O)c1ccc2c(c1)OCO2)N1CCCC1` [S-(-)-MDPV], the results for the “Mass Balance (%)” value in data set [5] (AP → BL direction) and in data set [5] (BL → AP direction) were 100 ± 2% and 101 ± 4%, respectively. Besides, the apparent permeability coefficient (Papp) is 1.8e-05 ± 1e-06 cm/s in data set [5] (AP → BL direction, sink conditions (Equation 6), 300 µM) and 3.4 × 10^−5 ± 1 × 10^−6 ****^; # cm/s in data set [5] (BL → AP direction, non-sink conditions (Equation 7), 300 µM). In addition, the “Efflux Ratio” value in data set [5] (Papp (BL→AP)/Papp (AP→BL), 300 µM) was determined as 1.8 ± 0.2.

`CN[C@@H](C)C(=O)c1ccc2c(c1)OCO2` [S-(-)-methylone]: in data set [4], the “Enantioselectivity in permeability (more permeable enantiomer)” value is reported as “most permeable”.

Turning to `CNC(C)C(=O)c1ccc2c(c1)OCO2` (centres unmarked) [methylone], in data set [3], the “Concentration range with no cytotoxic effects” value is reported as “up to 2000 μM”.
